The subject of this test is Palmitoyl CoA oxidation. The test is described as follows: Palmitoyl CoA oxidation in isolated rat heart mitochondria. Format: biochemical. The conditions noted are these: 1-C14 palmitoyl CoA, 15 min at 30° C., read-out: PalmCoA IC50. How it is done:
Rat heart mitochondria were isolated by the method of Nedergard and Cannon (Methods in Enzymol. 55, 3, 1979).
Palmitoyl CoA oxidation—The Palmityl CoA oxidation was carried out in a total volume of 100 micro liters containing the following agents: 110 mM KCl, 33 mM Tris buffer at pH 8, 2 mM KPi, 2 mM MgCl2, 0.1 mM EDTA, 14.7 microM defatted BSA, 0.5 mM malic acid, 13 mM carnitine, 1 mM ADP, 52 micrograms of mitochondrial protein, and 16 microM 1-C14 palmitoyl CoA (Sp. Activity 60 mCi/mmole; 20 microCi/ml, using 5 microliters per assay). The compounds of this invention were added in a DMSO solution at the following concentrations: 100 micro molar, 30 micro molar, and 3 micro molar. In each assay, a DMSO control was used. After 15 min at 30° C., the enzymatic reaction was centrifuged (20,000 g for 1 min), and 70 microliters of the supernatant was added to an activated reverse phase silicic acid column (approximately 0.5 ml of silicic acid). The column was eluted with 2 ml of water, and 0.5 ml of the eluent was used for scintillation counting to determine the amount of C^14 trapped as C^14 bicarbonate ion.

Results on 1 molecule are retold here after patent publication US7407960B2, “Substituted heterocyclic compounds” (CV Therapeutics, Inc., priority 2002, dated 2008).

In general, IC50 refers to the concentration at which inhibition is half-maximal.

On to `Cc1nc2cc(OC[C@H](O)CN3CCN(CC(=O)Nc4cccc5c4CCC5)CC3)ccc2s1` [2-{4-[(2R)-2-hydroxy-3-(2-methylbenzothiazol-5-yloxy)propyl]piperazinyl}-N-indan-4-ylacetamide], for which the IC50 stood at 150 nM.
